Earlier results on 1 substance are cited in patent publication US20030134332A1, “Diagnosis of endothelial dysfunction by nitric oxide bioactivity index” (priority 2001, published 2003).

Data set [1] relates to plasma isoprostane (oxidant stress marker). Conditions: diabetic men, 600 mg twice daily for seven days.
Data set [2] concerns wound healing in diabetic mice.

On to “2-(2,3-dihydro-5-acetoxy-4,6,7-trimethylbenzofuranyl) acetic acid [raxofelast]”, for which the “fall of plasma isoprostane levels in diabetics” value in data set [1] was 50%. The “effect on wound healing” value in data set [2] is recorded as “stimulates wound healing”.
